Data as given in ChEMBL document CHEMBL4507282, “Data for DCP probe BI-1950” (2021).

Columns and labels:
[1] = molecular target: Serine/threonine-protein kinase 38-like (Homo sapiens) (UniProt Q9Y2H1); details: Compound concentration 1000.0 nM
[2] = molecular target: Epidermal growth factor receptor (Homo sapiens) (UniProt P00533); details: Compound concentration 1000.0 nM
[3] = molecular target: Dual specificity mitogen-activated protein kinase kinase 4 (Homo sapiens) (UniProt P45985); details: Compound concentration 1000.0 nM
[4] = molecular target: Serine/threonine-protein kinase SIK2 (Homo sapiens) (UniProt Q9H0K1); details: Compound concentration 1000.0 nM
[5] = molecular target: MAP kinase-activated protein kinase 2 (Homo sapiens) (UniProt P49137); details: Compound concentration 1000.0 nM
[6] = molecular target: Serine/threonine-protein kinase Nek1 (Homo sapiens) (UniProt Q96PY6); details: Compound concentration 1000.0 nM
[7] = molecular target: Rhodopsin kinase GRK7 (Homo sapiens) (UniProt Q8WTQ7); details: Compound concentration 1000.0 nM
[8] = molecular target: Cyclin-dependent kinase 19 (Homo sapiens) (UniProt Q9BWU1); details: Compound concentration 1000.0 nM
[9] = molecular target: Dual specificity protein kinase TTK (Homo sapiens) (UniProt P33981); details: Compound concentration 1000.0 nM
[10] = tested on: Receptor-type tyrosine-protein kinase FLT3 (Homo sapiens), P36888 [N841I]; details: Compound concentration 1000.0 nM
[11] = molecular target: Mitogen-activated protein kinase kinase kinase 7 (Homo sapiens) (UniProt O43318); details: Compound concentration 1000.0 nM
[12] = molecular target: Ephrin type-A receptor 5 (Homo sapiens) (UniProt P54756); details: Compound concentration 1000.0 nM
[13] = molecular target: Myosin-IIIb (Homo sapiens) (UniProt Q8WXR4); details: Compound concentration 1000.0 nM
[14] = molecular target: Serine/threonine-protein kinase Nek4 (Homo sapiens) (UniProt P51957); details: Compound concentration 1000.0 nM
[15] = tested on: Phosphatidylinositol 4,5-bisphosphate 3-kinase catalytic subunit alpha isoform (Homo sapiens), P42336 [H1047Y]; details: Compound concentration 1000.0 nM
[16] = molecular target: LIM domain kinase 2 (Homo sapiens) (UniProt P53671); details: Compound concentration 1000.0 nM
[17] = molecular target: Aurora kinase C (Homo sapiens) (UniProt Q9UQB9); details: Compound concentration 1000.0 nM
[18] = tested on: Leucine-rich repeat serine/threonine-protein kinase 2 (Homo sapiens), Q5S007 [G2019S]; details: Compound concentration 1000.0 nM
[19] = molecular target: RAC-alpha serine/threonine-protein kinase (Homo sapiens) (UniProt P31749); details: Compound concentration 1000.0 nM
[20] = molecular target: Serine/threonine-protein kinase DCLK2 (Homo sapiens) (UniProt Q8N568); details: Compound concentration 1000.0 nM
[21] = molecular target: GABA-A receptor; anion channel (Rattus norvegicus) (UniProt O09028+P15431+P18506+P18508+P19969+P20236+P23574+P23576+P28471+P28473+P30191+P62813+P63079+P63138+Q91ZM7+Q9ES14); details: Compound concentration 10.0 uM
[22] = molecular target: Dual specificity mitogen-activated protein kinase kinase 3 (Homo sapiens) (UniProt P46734); details: Compound concentration 1000.0 nM
[23] = molecular target: Phosphatidylinositol 5-phosphate 4-kinase type-2 beta (Homo sapiens) (UniProt P78356); details: Compound concentration 1000.0 nM
[24] = molecular target: NUAK family SNF1-like kinase 1 (Homo sapiens) (UniProt O60285); details: Compound concentration 1000.0 nM
[25] = molecular target: Proto-oncogene tyrosine-protein kinase ROS (Homo sapiens) (UniProt P08922); details: Compound concentration 1000.0 nM
[26] = molecular target: Mitotic checkpoint serine/threonine-protein kinase BUB1 (Homo sapiens) (UniProt O43683); details: Compound concentration 1000.0 nM
[27] = molecular target: Phosphatidylinositol 4,5-bisphosphate 3-kinase catalytic subunit delta isoform (Homo sapiens) (UniProt O00329); details: Compound concentration 1000.0 nM
[28] = molecular target: Dual specificity tyrosine-phosphorylation-regulated kinase 1B (Homo sapiens) (UniProt Q9Y463); details: Compound concentration 1000.0 nM
[29] = tested on: Epidermal growth factor receptor (Homo sapiens), P00533 [G719S]; details: Compound concentration 1000.0 nM
[30] = molecular target: Non-receptor tyrosine-protein kinase TNK1 (Homo sapiens) (UniProt Q13470); details: Compound concentration 1000.0 nM
[31] = tested on: Receptor-type tyrosine-protein kinase FLT3 (Homo sapiens), P36888 [K663Q]; details: Compound concentration 1000.0 nM
[32] = molecular target: Serine/threonine-protein kinase NIM1 (Homo sapiens) (UniProt Q8IY84); details: Compound concentration 1000.0 nM
[33] = molecular target: Serine/threonine-protein kinase Nek6 (Homo sapiens) (UniProt Q9HC98); details: Compound concentration 1000.0 nM
[34] = molecular target: Serine/threonine-protein kinase RIO2 (Homo sapiens) (UniProt Q9BVS4); details: Compound concentration 1000.0 nM
[35] = molecular target: Serine/threonine-protein kinase ICK (Homo sapiens) (UniProt Q9UPZ9); details: Compound concentration 1000.0 nM
[36] = molecular target: Tyrosine-protein kinase Fyn (Homo sapiens) (UniProt P06241); details: Compound concentration 1000.0 nM
[37] = molecular target: Serine/threonine-protein kinase D3 (Homo sapiens) (UniProt O94806); details: Compound concentration 1000.0 nM
[38] = molecular target: Myosin light chain kinase 2, skeletal/cardiac muscle (Homo sapiens) (UniProt Q9H1R3); details: Compound concentration 1000.0 nM
[39] = molecular target: Ephrin type-A receptor 2 (Homo sapiens) (UniProt P29317); details: Compound concentration 1000.0 nM
[40] = tested on: Proto-oncogene tyrosine-protein kinase receptor Ret (Homo sapiens), P07949 [V804M]; details: Compound concentration 1000.0 nM
[41] = tested on: Serine/threonine-protein kinase B-raf (Homo sapiens), P15056 [V600E]; details: Compound concentration 1000.0 nM
[42] = molecular target: Serine/threonine-protein kinase Nek9 (Homo sapiens) (UniProt Q8TD19); details: Compound concentration 1000.0 nM
[43] = molecular target: Tyrosine-protein kinase SYK (Homo sapiens) (UniProt P43405); details: Compound concentration 1000.0 nM

Sequence of RAC-alpha serine/threonine-protein kinase (Homo sapiens) (P31749 whole entry): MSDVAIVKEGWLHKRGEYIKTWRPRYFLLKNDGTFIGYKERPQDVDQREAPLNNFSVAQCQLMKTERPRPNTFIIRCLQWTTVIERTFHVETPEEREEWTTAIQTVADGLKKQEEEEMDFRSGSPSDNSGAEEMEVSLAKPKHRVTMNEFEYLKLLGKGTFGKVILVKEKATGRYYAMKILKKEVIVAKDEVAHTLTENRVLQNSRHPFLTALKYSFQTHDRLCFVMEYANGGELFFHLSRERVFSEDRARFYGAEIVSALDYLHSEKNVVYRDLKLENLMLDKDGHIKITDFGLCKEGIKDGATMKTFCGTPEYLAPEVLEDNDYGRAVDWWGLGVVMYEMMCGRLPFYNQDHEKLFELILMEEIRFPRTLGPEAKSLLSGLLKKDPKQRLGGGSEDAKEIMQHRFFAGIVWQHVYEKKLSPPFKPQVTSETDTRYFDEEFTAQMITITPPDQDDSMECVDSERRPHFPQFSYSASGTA
Sequence of MAP kinase-activated protein kinase 2 (Homo sapiens) (P49137 whole entry, looked up): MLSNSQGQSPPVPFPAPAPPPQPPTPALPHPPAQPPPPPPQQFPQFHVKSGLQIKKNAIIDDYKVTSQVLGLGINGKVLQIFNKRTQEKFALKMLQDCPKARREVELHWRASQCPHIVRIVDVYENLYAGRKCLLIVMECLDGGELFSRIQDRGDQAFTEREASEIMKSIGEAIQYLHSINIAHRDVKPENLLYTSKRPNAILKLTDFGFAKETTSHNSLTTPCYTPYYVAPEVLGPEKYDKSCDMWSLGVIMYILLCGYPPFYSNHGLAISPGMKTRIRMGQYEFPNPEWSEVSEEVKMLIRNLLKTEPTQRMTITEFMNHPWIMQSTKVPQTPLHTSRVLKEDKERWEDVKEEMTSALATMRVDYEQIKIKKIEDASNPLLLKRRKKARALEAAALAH
Sequence of NUAK family SNF1-like kinase 1 (Homo sapiens) (O60285 whole entry): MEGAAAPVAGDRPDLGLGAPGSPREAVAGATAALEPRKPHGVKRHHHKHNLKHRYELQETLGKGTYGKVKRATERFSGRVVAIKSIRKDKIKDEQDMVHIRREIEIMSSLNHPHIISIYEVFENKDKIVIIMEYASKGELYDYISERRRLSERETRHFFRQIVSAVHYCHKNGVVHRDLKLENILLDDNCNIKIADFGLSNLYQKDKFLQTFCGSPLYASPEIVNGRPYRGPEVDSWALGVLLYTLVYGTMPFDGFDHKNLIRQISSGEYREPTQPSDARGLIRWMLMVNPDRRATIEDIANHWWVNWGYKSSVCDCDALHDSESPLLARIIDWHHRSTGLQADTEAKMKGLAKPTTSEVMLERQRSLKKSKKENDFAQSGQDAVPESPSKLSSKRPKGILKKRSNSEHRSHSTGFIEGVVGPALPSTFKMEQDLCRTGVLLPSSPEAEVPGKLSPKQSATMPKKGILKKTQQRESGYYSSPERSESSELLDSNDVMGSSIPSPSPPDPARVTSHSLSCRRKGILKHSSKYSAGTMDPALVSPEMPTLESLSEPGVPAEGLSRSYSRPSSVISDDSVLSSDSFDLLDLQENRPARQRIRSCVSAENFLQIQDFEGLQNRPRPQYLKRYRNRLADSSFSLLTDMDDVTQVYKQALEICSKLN
Sequence of Serine/threonine-protein kinase Nek1 (Homo sapiens) (Q96PY6 whole entry): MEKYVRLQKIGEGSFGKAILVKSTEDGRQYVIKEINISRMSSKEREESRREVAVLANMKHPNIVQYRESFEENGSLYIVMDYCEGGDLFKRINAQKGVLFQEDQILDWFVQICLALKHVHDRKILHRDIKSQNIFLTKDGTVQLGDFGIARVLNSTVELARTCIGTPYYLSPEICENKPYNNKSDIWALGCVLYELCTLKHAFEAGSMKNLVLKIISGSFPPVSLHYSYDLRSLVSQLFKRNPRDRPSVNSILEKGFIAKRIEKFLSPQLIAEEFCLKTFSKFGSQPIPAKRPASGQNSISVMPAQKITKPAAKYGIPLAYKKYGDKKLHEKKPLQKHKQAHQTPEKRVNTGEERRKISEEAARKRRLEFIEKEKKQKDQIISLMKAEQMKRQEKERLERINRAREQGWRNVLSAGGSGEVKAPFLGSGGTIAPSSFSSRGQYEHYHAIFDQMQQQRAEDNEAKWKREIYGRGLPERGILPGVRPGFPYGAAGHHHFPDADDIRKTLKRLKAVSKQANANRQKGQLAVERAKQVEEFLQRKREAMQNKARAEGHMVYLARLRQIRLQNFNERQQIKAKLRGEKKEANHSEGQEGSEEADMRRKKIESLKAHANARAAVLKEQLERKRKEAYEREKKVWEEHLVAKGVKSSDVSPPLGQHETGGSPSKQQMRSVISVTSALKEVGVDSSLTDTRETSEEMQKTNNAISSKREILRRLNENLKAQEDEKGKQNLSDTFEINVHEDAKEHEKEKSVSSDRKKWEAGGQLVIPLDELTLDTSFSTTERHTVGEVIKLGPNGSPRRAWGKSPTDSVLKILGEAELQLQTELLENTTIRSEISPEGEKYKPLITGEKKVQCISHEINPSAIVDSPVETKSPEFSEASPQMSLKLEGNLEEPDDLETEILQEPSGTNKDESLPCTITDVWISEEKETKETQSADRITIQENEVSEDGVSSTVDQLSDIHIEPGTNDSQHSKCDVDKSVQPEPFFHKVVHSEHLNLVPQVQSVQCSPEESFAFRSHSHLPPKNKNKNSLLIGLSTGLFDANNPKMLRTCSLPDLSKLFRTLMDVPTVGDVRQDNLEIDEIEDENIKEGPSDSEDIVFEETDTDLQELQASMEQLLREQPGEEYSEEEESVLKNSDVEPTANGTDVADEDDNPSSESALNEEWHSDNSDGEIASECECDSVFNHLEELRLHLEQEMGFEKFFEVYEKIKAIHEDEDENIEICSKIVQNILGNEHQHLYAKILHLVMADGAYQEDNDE
Sequence of Dual specificity protein kinase TTK (Homo sapiens) (P33981 whole entry): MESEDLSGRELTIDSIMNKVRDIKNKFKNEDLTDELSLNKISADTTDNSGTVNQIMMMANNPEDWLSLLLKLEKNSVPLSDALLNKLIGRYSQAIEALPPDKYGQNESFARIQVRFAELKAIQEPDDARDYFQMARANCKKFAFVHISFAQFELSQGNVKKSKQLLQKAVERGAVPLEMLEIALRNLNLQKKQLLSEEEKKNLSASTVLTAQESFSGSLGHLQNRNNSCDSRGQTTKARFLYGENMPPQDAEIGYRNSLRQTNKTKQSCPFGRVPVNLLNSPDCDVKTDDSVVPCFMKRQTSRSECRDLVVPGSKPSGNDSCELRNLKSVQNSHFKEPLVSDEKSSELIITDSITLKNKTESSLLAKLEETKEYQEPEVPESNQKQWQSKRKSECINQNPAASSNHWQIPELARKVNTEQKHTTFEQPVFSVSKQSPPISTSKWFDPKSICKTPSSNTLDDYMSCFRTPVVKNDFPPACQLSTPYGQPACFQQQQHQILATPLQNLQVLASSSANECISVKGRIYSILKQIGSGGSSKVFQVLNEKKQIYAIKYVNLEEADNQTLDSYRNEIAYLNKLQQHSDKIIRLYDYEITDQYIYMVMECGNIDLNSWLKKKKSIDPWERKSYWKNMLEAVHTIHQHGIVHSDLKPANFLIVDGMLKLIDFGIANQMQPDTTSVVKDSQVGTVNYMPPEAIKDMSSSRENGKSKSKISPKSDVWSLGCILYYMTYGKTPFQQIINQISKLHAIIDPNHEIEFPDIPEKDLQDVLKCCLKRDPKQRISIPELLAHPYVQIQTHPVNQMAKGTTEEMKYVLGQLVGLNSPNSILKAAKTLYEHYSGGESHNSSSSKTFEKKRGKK
Sequence of Serine/threonine-protein kinase NIM1 (Homo sapiens) (Q8IY84 whole entry): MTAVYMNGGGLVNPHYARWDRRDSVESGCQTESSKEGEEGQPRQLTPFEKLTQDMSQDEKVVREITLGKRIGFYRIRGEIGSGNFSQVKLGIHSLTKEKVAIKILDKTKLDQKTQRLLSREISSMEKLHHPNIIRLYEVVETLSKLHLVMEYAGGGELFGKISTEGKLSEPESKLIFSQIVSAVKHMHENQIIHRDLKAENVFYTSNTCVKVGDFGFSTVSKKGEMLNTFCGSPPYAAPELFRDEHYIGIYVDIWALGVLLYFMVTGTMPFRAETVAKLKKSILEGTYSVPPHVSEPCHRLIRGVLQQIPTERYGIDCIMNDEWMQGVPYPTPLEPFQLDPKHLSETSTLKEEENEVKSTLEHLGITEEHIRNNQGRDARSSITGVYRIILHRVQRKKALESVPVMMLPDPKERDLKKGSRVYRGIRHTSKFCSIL
Sequence of Serine/threonine-protein kinase SIK2 (Homo sapiens) (Q9H0K1 whole entry, looked up): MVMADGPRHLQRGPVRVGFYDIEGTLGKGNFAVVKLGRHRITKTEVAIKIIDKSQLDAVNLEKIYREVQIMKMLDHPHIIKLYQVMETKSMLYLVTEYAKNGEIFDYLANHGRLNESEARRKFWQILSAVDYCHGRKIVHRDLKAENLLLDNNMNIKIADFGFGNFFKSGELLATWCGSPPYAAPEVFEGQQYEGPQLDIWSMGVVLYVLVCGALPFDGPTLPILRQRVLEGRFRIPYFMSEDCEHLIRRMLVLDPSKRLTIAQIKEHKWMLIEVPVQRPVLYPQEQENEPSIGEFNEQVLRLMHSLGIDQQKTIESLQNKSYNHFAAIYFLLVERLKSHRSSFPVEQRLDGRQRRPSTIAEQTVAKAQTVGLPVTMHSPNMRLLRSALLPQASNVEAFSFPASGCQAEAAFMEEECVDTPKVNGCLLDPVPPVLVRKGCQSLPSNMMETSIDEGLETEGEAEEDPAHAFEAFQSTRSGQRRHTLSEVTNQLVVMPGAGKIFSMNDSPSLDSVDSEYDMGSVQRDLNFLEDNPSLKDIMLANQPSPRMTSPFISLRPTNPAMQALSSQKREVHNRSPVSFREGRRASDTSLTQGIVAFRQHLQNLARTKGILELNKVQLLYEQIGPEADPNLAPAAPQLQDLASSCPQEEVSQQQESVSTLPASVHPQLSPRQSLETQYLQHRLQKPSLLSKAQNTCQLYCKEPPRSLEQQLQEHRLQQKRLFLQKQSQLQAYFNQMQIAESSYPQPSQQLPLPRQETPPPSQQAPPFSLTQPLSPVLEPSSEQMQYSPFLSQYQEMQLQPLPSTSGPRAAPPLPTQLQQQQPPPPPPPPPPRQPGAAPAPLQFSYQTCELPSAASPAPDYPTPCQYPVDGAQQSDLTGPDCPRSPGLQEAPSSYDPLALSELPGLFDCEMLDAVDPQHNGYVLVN

In the case of `C[C@@]1(Cc2ccc(C#N)cc2)C(=O)N(c2cc(Cl)cc(Cl)c2)c2ncc(C(=O)NC3(c4nc(C5CCC5)no4)CC3)n21` [BI 9446], the residual activity [1] is reported as 48%, the residual activity [2] is reported as 100% and the residual activity [3] is reported as 100%. For the same molecule, the residual activity [4] was 100%, the residual activity [5] was 100% and the residual activity [6] was 48%. For the same molecule, the residual activity [7] was 100%, the residual activity [8] was 76% and the residual activity [9] was 94%. The residual activity [10] was 89%, the residual activity [11] was 96% and the residual activity [12] was 100%. For the same molecule, the residual activity [13] was 99%, the residual activity [14] was 12% and the residual activity [15] was 100%. For the same molecule, the residual activity [16] was 100%, the residual activity [17] was 100% and the residual activity [18] was 100%. The residual activity [19] was 100%, the residual activity [20] was 100% and the inhibition [21] was -8.68%. For the same molecule, the residual activity [22] was 89%, the residual activity [23] was 97% and the residual activity [24] was 100%. It also gave a residual activity [25] of 100%, a residual activity [26] of 100% and a residual activity [27] of 73%. For the same molecule, the residual activity [28] was 80%, the residual activity [29] was 99% and the residual activity [30] was 93%. The residual activity [31] was 100%, the residual activity [32] was 100% and the residual activity [33] was 100%. For the same molecule, the residual activity [34] was 100%, the residual activity [35] was 100% and the residual activity [36] was 89%. The residual activity [37] was 87%, the residual activity [38] was 100% and the residual activity [39] was 56%. For the same molecule, the residual activity [40] was 100%, the residual activity [41] was 100% and the residual activity [42] was 86%. It also gave a residual activity [43] of 100%.
`C[C@H](NC(=O)c1cnc2n1[C@](C)(Cc1ccc(C#N)cc1)C(=O)N2c1cc(Cl)c(F)c(Cl)c1)C(=O)NC1(c2ccccn2)CC1` [BI 1950] was tested, and the residual activity [1] was 49%, the residual activity [2] was 100% and the residual activity [3] was 100%. It also gave a residual activity [4] of 100%, a residual activity [5] of 100% and a residual activity [6] of 59%. For the same molecule, the residual activity [7] was 100%, the residual activity [8] was 81% and the residual activity [9] was 100%. It also gave a residual activity [10] of 78%, a residual activity [11] of 97% and a residual activity [12] of 100%. For the same molecule, the residual activity [13] was 100%, the residual activity [14] was 100% and the residual activity [15] was 100%. For the same molecule, the residual activity [16] was 100%, the residual activity [17] was 100% and the residual activity [18] was 100%. For the same molecule, the residual activity [19] was 100%, the residual activity [20] was 100% and the inhibition [21] was -4.17%. It also gave a residual activity [22] of 80%, a residual activity [23] of 100% and a residual activity [24] of 99%. The residual activity [25] was 100%, the residual activity [26] was 100% and the residual activity [27] was 95%. The residual activity [28] was 100%, the residual activity [29] was 100% and the residual activity [30] was 88%. The residual activity [31] was 100%, the residual activity [32] was 100% and the residual activity [33] was 100%. The residual activity [34] was 100%, the residual activity [35] was 100% and the residual activity [36] was 70%. It also gave a residual activity [37] of 100%, a residual activity [38] of 98% and a residual activity [39] of 75%. The residual activity [40] was 100%, the residual activity [41] was 100% and the residual activity [42] was 100%. The residual activity [43] was 100%.
